Source: patent US20090163475A1, “CRYSTALLINE FORM OF BENZAZEPINIUM MALEATE DERIVATIVE” (priority 2005, published 2009)

What was measured:
[1] = molecular target: T1, serotonin 5-HT2C receptor (Homo sapiens, UniProt P28335); assay: antagonist affinity for serotonin 5-HT2C receptor; format: binding
T1 sequence (P28335 33-458): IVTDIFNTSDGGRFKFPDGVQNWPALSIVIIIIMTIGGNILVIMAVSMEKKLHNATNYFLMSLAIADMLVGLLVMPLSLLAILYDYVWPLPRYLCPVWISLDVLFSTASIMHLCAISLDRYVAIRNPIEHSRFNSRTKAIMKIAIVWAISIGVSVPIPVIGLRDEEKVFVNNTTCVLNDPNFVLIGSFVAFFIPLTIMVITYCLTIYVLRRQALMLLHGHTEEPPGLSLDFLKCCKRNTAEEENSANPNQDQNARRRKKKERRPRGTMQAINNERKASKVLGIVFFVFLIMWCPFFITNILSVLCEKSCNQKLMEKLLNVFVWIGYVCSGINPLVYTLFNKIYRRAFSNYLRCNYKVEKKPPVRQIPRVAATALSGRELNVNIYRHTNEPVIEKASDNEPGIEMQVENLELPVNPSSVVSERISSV

dopamine D2 receptor = dopamine D2 receptor (Homo sapiens, UniProt P14416); assay: affinity for dopamine D2 receptors; format: binding
Chain of dopamine D2 receptor (P14416 whole entry): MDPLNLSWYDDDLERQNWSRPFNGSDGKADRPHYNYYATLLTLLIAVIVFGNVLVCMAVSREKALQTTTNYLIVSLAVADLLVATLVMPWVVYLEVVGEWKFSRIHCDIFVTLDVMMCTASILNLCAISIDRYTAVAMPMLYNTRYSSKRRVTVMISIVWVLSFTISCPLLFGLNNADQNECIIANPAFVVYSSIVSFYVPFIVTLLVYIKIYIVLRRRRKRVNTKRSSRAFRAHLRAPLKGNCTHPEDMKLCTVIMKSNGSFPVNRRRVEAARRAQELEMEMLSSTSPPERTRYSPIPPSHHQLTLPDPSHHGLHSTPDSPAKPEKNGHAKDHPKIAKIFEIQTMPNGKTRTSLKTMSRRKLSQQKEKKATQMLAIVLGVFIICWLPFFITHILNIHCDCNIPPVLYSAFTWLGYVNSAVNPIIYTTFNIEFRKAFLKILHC

serotonin 5-HT6 receptor = serotonin 5-HT6 receptor (Homo sapiens, UniProt P50406); assay: antagonist affinity for serotonin 5-HT6 receptor; format: binding
Chain of serotonin 5-HT6 receptor (P50406 whole entry): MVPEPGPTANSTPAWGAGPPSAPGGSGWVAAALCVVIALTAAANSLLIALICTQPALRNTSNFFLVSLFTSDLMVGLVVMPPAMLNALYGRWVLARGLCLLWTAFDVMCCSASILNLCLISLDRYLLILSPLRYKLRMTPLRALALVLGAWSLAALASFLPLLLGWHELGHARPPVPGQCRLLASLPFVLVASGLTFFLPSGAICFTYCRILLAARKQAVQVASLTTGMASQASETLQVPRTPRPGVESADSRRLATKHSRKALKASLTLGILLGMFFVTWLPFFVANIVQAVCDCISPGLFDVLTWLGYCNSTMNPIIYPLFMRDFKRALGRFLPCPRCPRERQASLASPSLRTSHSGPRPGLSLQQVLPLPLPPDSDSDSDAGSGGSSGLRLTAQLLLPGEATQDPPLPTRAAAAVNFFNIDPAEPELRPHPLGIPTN

dopamine D3 receptor = dopamine D3 receptor (Homo sapiens, UniProt P35462); assay: affinity for dopamine D3 receptors; format: binding
Chain of dopamine D3 receptor (P35462 whole entry, species assumed): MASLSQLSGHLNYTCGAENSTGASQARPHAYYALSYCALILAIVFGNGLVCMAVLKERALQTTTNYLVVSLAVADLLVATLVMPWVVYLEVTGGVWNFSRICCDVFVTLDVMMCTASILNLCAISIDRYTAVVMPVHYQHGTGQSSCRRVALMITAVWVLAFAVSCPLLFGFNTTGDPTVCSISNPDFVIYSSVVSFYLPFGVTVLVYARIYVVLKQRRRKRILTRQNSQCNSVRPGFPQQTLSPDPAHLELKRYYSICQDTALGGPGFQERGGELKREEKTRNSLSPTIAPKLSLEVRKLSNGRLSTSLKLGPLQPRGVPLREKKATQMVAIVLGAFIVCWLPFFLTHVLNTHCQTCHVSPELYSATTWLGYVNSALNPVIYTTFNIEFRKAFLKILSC

[2] = solid-state stability with respect to hygroscopicity / humidity; format: physicochemical

Row | Structure (SMILES) | antagonist affinity for serotonin 5-HT2C receptor [1] | affinity for dopamine D2 receptor (dopamine D2 receptor) | antagonist affinity for serotonin 5-HT6 receptor (serotonin 5-HT6 receptor) | affinity for dopamine D3 receptor (dopamine D3 receptor) | affinity for dopamine D3 relative to D2 receptors (dopamine D3 receptor; D3 versus D2) | stability with respect to hygroscopicity and loss of water [2] | changes when exposed to very high humidity ([2]; very high humidity)
1 | COc1cc2c(cc1S(=O)(=O)c1ccc(OCc3ccc(Cl)cc3)cc1)CCN(C)CC2.O=C(O)/C=C\C(=O)O [Form 2 salt, 7-[4-(4-Chlorobenzyloxy)benzenesulfonyl]-8-methoxy-3-methyl-2,3,4,5-tetrahydro-1H-3-benzazepinium maleate] | antagonist affinity | exhibit affinity | antagonist affinity | exhibit affinity | greater affinity for dopamine D3 than for D2 receptors | – | –
2 | COc1cc2c(cc1S(=O)(=O)c1ccc(OCc3ccc(Cl)cc3)cc1)CCN(C)CC2.O=C(O)/C=C\C(=O)O [Form 2 maleate anhydrate, 7-[4-(4-Chlorobenzyloxy)benzenesulfonyl]-8-methoxy-3-methyl-2,3,4,5-tetrahydro-1H-3-benzazepinium Maleate] | – | – | – | – | – | particular stability | reversible changes
